The record followed here is patent US20100022589A1, “PYRIDINE-3-CARBOXAMIDE COMPOUNDS AND THEIR USE FOR INHIBITING 11-BETA-HYDROXYSTEROID DEHYDROGENASE” (priority 2006, published 2010).

The structures appear in SMILES notation.

In the test the target is T1, human 11βHSD1 enzyme (Homo sapiens, UniProt P28845).
T1 construct: N terminal 6-His tagged full length human 11βHSD1 enzyme; 6-His (N); made in house
Description: 11βHSD1 competitive HTRF assay (conversion of cortisone to cortisol). Format: biochemical. Particulars: for IC50: baculovirus expressed N terminal 6-His tagged full length human 11βHSD1, cortisone 160 nM, 25 minutes at 37° C.; for activity in the 11βHSD1 assay: at 30 μM. Here is the method:
The conversion of cortisone to the active steroid cortisol by 11βHSD1 oxo-reductase activity, can be measured using a competitive homogeneous time resolved fluorescence assay (HTRF) (CisBio International, R&D, Administration and Europe Office, In Vitro Technologies—HTRF®/Bioassays BP 84175, 30204 Bagnols/Cèze Cedex, France. Cortisol bulk HTRF kit: Cat No. 62CORPEC).
The evaluation of compounds described herein was carried out using a baculovirus expressed N terminal 6-His tagged full length human 11βHSD1 enzyme(*1). The enzyme was purified from a detergent solublised cell lysate, using a copper chelate column. Inhibitors of 11βHSD1 reduce the conversion of cortisone to cortisol, which is identified by an increase in signal, in the above assay.
Compounds to be tested were dissolved in dimethyl sulphoxide (DMSO) to 10 mM and diluted further in assay buffer containing 10% DMSO to 10 fold the final assay concentration. Diluted compounds were then plated into black 384 well plates (Matrix, Hudson N.H., USA).
The assay was carried out in a total volume of 20 μl consisting of cortisone (Sigma, Poole, Dorset, UK, 160 nM), glucose-6-phosphate (Roche Diagnostics, 1 mM), NADPH (Roche Diagnostics, 100 μM), glucose-6-phosphate dehydrogenase (Roche Diagnostics, 12.5 μg/ml), EDTA (Sigma, Poole, Dorset, UK, 1 mM), assay buffer (K2HPO4/KH2PO4, 100 mM) pH 7.5, recombinant 11βHSD1 (1.5 μg/ml) plus test compound. The assay plates were incubated for 25 minutes at 37° C. after which time the reaction was stopped by the addition of 10 μl of 0.5 mM glycerrhetinic acid plus cortisol-XL665. 10 μl of anti-cortisol Cryptate was then added and the plates sealed and incubated for 6 hours at room temperature. Fluorescence at 665 nm and 620 nm was measured and the 665 nm:620 nm ratio calculated using an Envision plate reader.
On the technique in general: In TR-FRET formats the signal depends on donor and acceptor labels being close together.

T1 sequence (P28845 whole entry): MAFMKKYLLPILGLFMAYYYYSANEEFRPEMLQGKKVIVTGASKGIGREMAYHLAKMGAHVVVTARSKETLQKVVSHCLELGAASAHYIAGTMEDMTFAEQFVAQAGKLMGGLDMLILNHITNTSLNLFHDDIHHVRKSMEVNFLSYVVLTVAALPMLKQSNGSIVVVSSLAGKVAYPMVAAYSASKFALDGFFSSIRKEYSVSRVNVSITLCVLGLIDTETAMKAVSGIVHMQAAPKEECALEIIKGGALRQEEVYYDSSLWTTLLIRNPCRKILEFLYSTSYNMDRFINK

Usually IC50 stands for the concentration needed to halve the response being measured. On to `O=C(NC1CCCCC1)c1cccnc1SCCc1ccccn1` [Example 3, N-Cyclohexyl-2-(2-pyridin-2-ylethylsulfanyl)pyridine-3-carboxamide], for which the IC50 worked out at 890 nM.

With `O=C(NC1CCCCC1)c1ccc(C(F)(F)F)nc1SCCc1ccccc1` [N-cyclohexyl-2-(phenethylsulfanyl)-6-trifluoromethylpyridine-3-carboxamide], the “activity in the 11βHSD1 assay” value is “did not show activity”.

`O=C(NC1CCCCC1)c1cccnc1SCCc1ccccc1` [Example 4, N-Cyclohexyl-2-phenethylsulfanyl-pyridine-3-carboxamide] showed a half-maximal inhibitory concentration (IC50) of 27 nM.

In the case of `O=C(O)c1ccccc1CCSc1ncccc1C(=O)NC1CCCCC1` [N-cyclohexyl-2-[2-(2-carboxyphenyl)ethyl)sulfanyl]pyridine-3-carboxamide], the “activity in the 11βHSD1 assay” value is listed as “did not show activity”.
